Assay results: publication PMC9959048, “Lipidation of Naturally Occurring α-Helical Antimicrobial Peptides as a Promising Strategy for Drug Design” (International Journal of Molecular Sciences, 2023)
Values after ≈ are worked out from the molar mass of the structure shown. Residues, ends and D or L forms follow the SMILES beside them. *: point of attachment. Octanoyl = CCCCCCCC(=O)*

Tests used:
[1] = test system: C. glabrata CCM8270; assay type: cell-based, Candida glabrata; conditions: CCM8270, 24 h
Method in brief: (§1)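 Absorbance at 600 nm after 24 h incubation defines growth, with inhibition expressed as % of peptide-free inoculated wells and medium-only wells as 0%. Serial micro-dilution followed CLSI methods for aerobic bacteria (MHB, 37 °C) and yeasts (RPMI-1640–MOPS, 2% glucose, 35 °C).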

[2] = test system: C. parapsilosis CCM 8260; assay type: cell-based, Candida parapsilosis; conditions: CCM 8260, 24 h
Method in brief: as §1

[3] = test system: human breast cancer cells (MCF-7 line, ATCC); experiment: MTT cytotoxicity assay; assay type: cell-based; conditions: IC50 against HaCaT divided by IC50 for MCF-7
Protocol: (§2) The prepared plates were further incubated for 48 h. […] The control cell viability was assumed to be 100%. Three independent experiments were carried out in three repetitions.

[4] = test system: human prostate cancer cells (PC3 line, ATCC); experiment: MTT cytotoxicity assay; assay type: cell-based; conditions: IC50 against HaCaT divided by IC50 for PC3
Protocol: as §2

[5] = test system: POPG liposomes; experiment: CD, α-helix content in POPG liposomes; assay type: physicochemical; conditions: 25 °C, peptide 0.15 mg/mL, 1.3 mM POPG, from ellipticity at 222 nm

SMILES: CCCCCCCC(=O)N[C@H](C(=O)N[C@@H](CCCCN)C(=O)N[C@@H](CCCCN)C(=O)N[C@H](C(=O)N[C@@H](CC(C)C)C(=O)N[C@@H](CO)C(=O)N[C@@H](CCCCN)C(=O)N[C@H](C(=O)N[C@@H](CCCCN)C(=O)N[C@@H](CCCCN)C(=O)N[C@@H](CC(C)C)C(=O)N[C@@H](CC(C)C)C(=O)N[C@@H](CCCCN)C(N)=O)[C@@H](C)CC)[C@@H](C)CC)[C@@H](C)CC [C8-LK6] (Octanoyl-IKKILSKIKKLLK-NH2)
- MIC, C. glabrata CCM8270 [1]: 25 µg/mL (≈ 14.9 µM)
- MIC, C. parapsilosis CCM 8260 [2]: 6.25 µg/mL (≈ 3.72 µM)
- SI MCF-7 [3]: 3.44
- SI PC3 [4]: 1.50
- α-Helix percentage, POPG [5]: 24%
